Source: PubChem BioAssay (NCI)
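Tested at 5 concentrations; 48 h exposure; 96-well plates; endpoints linearly interpolated, else capped at highest concentration. At the GI50, growth is halved. TGI is the concentration that stops growth completely.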

Key:
Test in all cases: NCI tumour cell line growth inhibition, 48 h; in the data active means GI50 below about 0.43 µM; inactive means the rest
OVCAR-4 ovarian = tested on: OVCAR-4 ovarian
TK-10 renal = tested on: TK-10 renal
MDA-MB-435 = tested on: MDA-MB-435
NCI-H226 lung = tested on: NCI-H226 lung
OVCAR-8 ovarian = tested on: OVCAR-8 ovarian
CAKI-1 renal = tested on: CAKI-1 renal
LOX IMVI melanoma = tested on: LOX IMVI melanoma
UO-31 renal = tested on: UO-31 renal
HS 578T breast = tested on: HS 578T breast
HOP-62 NSCLC = tested on: HOP-62 NSCLC
OVCAR-5 ovarian = tested on: OVCAR-5 ovarian
SNB-75 CNS = tested on: SNB-75 CNS
MALME-3M melanoma = tested on: MALME-3M melanoma
MCF7 breast = tested on: MCF7 breast
SN12C renal = tested on: SN12C renal
MDA-MB-231 breast = tested on: MDA-MB-231 breast
HOP-92 NSCLC = tested on: HOP-92 NSCLC
OVCAR-3 ovarian = tested on: OVCAR-3 ovarian
UACC-62 melanoma = tested on: UACC-62 melanoma
IGROV1 ovarian = tested on: IGROV1 ovarian
M14 melanoma = tested on: M14 melanoma
EKVX NSCLC = tested on: EKVX NSCLC
BT-549 breast = tested on: BT-549 breast
SW-620 colon = tested on: SW-620 colon
A498 renal = tested on: A498 renal
ACHN renal = tested on: ACHN renal
SF-268 CNS = tested on: SF-268 CNS
NCI-H522 lung = tested on: NCI-H522 lung
SK-MEL-28 melanoma = tested on: SK-MEL-28 melanoma
NCI-H23 lung = tested on: NCI-H23 lung
K-562 leukemia = tested on: K-562 leukemia
SK-MEL-2 melanoma = tested on: SK-MEL-2 melanoma
HCT-116 colon = tested on: HCT-116 colon
SK-MEL-5 melanoma = tested on: SK-MEL-5 melanoma
786-0 renal = tested on: 786-0 renal
SK-OV-3 ovarian = tested on: SK-OV-3 ovarian
SNB-19 CNS = tested on: SNB-19 CNS
KM12 colon = tested on: KM12 colon
CCRF-CEM leukemia = tested on: CCRF-CEM leukemia
U251 CNS = tested on: U251 CNS
HT29 colon = tested on: HT29 colon
SF-295 CNS = tested on: SF-295 CNS
RPMI-8226 leukemia = tested on: RPMI-8226 leukemia
RXF 393 renal = tested on: RXF 393 renal
HL-60(TB) leukemia = tested on: HL-60(TB) leukemia
MOLT-4 leukemia = tested on: MOLT-4 leukemia
NCI/ADR-RES ovarian = tested on: NCI/ADR-RES ovarian
COLO 205 colon = tested on: COLO 205 colon
HCC-2998 colon = tested on: HCC-2998 colon
A549 NSCLC = tested on: A549 NSCLC
DU-145 prostate = tested on: DU-145 prostate
SR leukemia = tested on: SR leukemia
T-47D breast = tested on: T-47D breast
PC-3 prostate = tested on: PC-3 prostate
HCT-15 colon = tested on: HCT-15 colon
SF-539 CNS = tested on: SF-539 CNS
NCI-H460 lung = tested on: NCI-H460 lung

O=c1[nH]c2ccccc2c2ccccc12
> 100 µM: TGI (OVCAR-4 ovarian) | TGI (TK-10 renal) | TGI (MDA-MB-435) | TGI (NCI-H226 lung) | TGI (OVCAR-8 ovarian) | TGI (CAKI-1 renal) | TGI (LOX IMVI melanoma) | TGI (UO-31 renal) | TGI (HS 578T breast) | TGI (HOP-62 NSCLC) | TGI (OVCAR-5 ovarian) | TGI (SNB-75 CNS) | TGI (MALME-3M melanoma) | TGI (MCF7 breast) | TGI (SN12C renal) | TGI (MDA-MB-231 breast) | TGI (HOP-92 NSCLC) | TGI (OVCAR-3 ovarian) | TGI (UACC-62 melanoma) | TGI (IGROV1 ovarian) | TGI (M14 melanoma) | TGI (EKVX NSCLC) | TGI (BT-549 breast) | TGI (SW-620 colon) | TGI (A498 renal) | TGI (ACHN renal) | TGI (SF-268 CNS) | TGI (NCI-H522 lung) | TGI (SK-MEL-28 melanoma) | TGI (NCI-H23 lung) | TGI (K-562 leukemia) | TGI (SK-MEL-2 melanoma) | TGI (HCT-116 colon) | TGI (SK-MEL-5 melanoma) | TGI (786-0 renal) | TGI (SK-OV-3 ovarian) | TGI (SNB-19 CNS) | TGI (KM12 colon) | TGI (CCRF-CEM leukemia) | TGI (U251 CNS) | TGI (HT29 colon) | TGI (SF-295 CNS) | TGI (RPMI-8226 leukemia) | TGI (RXF 393 renal) | TGI (HL-60(TB) leukemia) | TGI (MOLT-4 leukemia) | TGI (NCI/ADR-RES ovarian) | TGI (COLO 205 colon) | TGI (HCC-2998 colon) | TGI (A549 NSCLC) | TGI (DU-145 prostate) | TGI (SR leukemia) | TGI (T-47D breast) | TGI (PC-3 prostate) | TGI (HCT-15 colon) | TGI (SF-539 CNS) | TGI (NCI-H460 lung)
inactive: GI50 (OVCAR-4 ovarian) 60.7 µM | GI50 (TK-10 renal) > 100 µM | GI50 (MDA-MB-435) > 100 µM | GI50 (NCI-H226 lung) > 100 µM | GI50 (OVCAR-8 ovarian) > 100 µM | GI50 (CAKI-1 renal) > 100 µM | GI50 (LOX IMVI melanoma) > 100 µM | GI50 (UO-31 renal) 70.9 µM | GI50 (HS 578T breast) > 100 µM | GI50 (HOP-62 NSCLC) > 100 µM | GI50 (OVCAR-5 ovarian) > 100 µM | GI50 (SNB-75 CNS) > 100 µM | GI50 (MALME-3M melanoma) > 100 µM | GI50 (MCF7 breast) > 100 µM | GI50 (SN12C renal) > 100 µM | GI50 (MDA-MB-231 breast) > 100 µM | GI50 (HOP-92 NSCLC) 39.8 µM | GI50 (OVCAR-3 ovarian) > 100 µM | GI50 (UACC-62 melanoma) > 100 µM | GI50 (IGROV1 ovarian) > 100 µM | GI50 (M14 melanoma) > 100 µM | GI50 (EKVX NSCLC) 92.9 µM | GI50 (BT-549 breast) > 100 µM | GI50 (SW-620 colon) > 100 µM | GI50 (A498 renal) 44.7 µM | GI50 (ACHN renal) > 100 µM | GI50 (SF-268 CNS) > 100 µM | GI50 (NCI-H522 lung) > 100 µM | GI50 (SK-MEL-28 melanoma) > 100 µM | GI50 (NCI-H23 lung) > 100 µM | GI50 (K-562 leukemia) > 100 µM | GI50 (SK-MEL-2 melanoma) > 100 µM | GI50 (HCT-116 colon) > 100 µM | GI50 (SK-MEL-5 melanoma) 91.5 µM | GI50 (786-0 renal) > 100 µM | GI50 (SK-OV-3 ovarian) 23.6 µM | GI50 (SNB-19 CNS) > 100 µM | GI50 (KM12 colon) > 100 µM | GI50 (CCRF-CEM leukemia) > 100 µM | GI50 (U251 CNS) > 100 µM | GI50 (HT29 colon) > 100 µM | GI50 (SF-295 CNS) > 100 µM | GI50 (RPMI-8226 leukemia) > 100 µM | GI50 (RXF 393 renal) > 100 µM | GI50 (HL-60(TB) leukemia) > 100 µM | GI50 (MOLT-4 leukemia) > 100 µM | GI50 (NCI/ADR-RES ovarian) > 100 µM | GI50 (COLO 205 colon) > 100 µM | GI50 (HCC-2998 colon) > 100 µM | GI50 (A549 NSCLC) > 100 µM | GI50 (DU-145 prostate) > 100 µM | GI50 (SR leukemia) 77.3 µM | GI50 (T-47D breast) > 100 µM | GI50 (PC-3 prostate) > 100 µM | GI50 (HCT-15 colon) > 100 µM | GI50 (SF-539 CNS) > 100 µM | GI50 (NCI-H460 lung) 70.1 µM
